Source: patent US20230406831A1, “COMPOUNDS AND METHODS OF INHIBITING BACTERIAL CHAPERONIN SYSTEMS” (THE TRUSTEES OF INDIANA UNIVERSITY, priority 2020, published 2023)
pIC50: −log10 of the molar value. Read-outs that look alike come from different tables or passages of the source.

Key:
[1] = biological target: T1, native MDH (Sus scrofa, UniProt P00346); assay: Native MDH enzymatic activity counter-screen; assay type: biochemical, pig
T1 construct: soluble pig heart MDH from Roche, product #10127248001; purchased Roche 10127248001; host or cells: pig heart
T1 sequence (P00346 25-338): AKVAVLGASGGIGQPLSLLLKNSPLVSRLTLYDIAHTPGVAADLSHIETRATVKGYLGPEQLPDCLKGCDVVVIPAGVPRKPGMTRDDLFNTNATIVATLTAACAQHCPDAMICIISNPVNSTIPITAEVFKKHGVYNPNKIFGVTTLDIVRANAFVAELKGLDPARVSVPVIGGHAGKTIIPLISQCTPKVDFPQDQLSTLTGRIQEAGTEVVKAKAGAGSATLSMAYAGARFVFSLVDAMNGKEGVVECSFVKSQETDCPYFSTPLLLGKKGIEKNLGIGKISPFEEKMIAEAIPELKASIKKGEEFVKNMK
Protocol: Counter-screening compounds for inhibition of native MDH enzymatic activity.
Reagent Preparations & Assay Protocol: This assay was performed as described above for the GroEL/ES-dMDH refolding assay; however, the assay protocol differed in the sequence of compound addition to the assay plates. The refolding reactions were allowed to proceed for 45 min at 37° C. in the absence of test compounds (complete refolding of MDH occurs), then quenched with the EDTA stock. Compounds were then pin-transferred into the plates after the EDTA quenching step; thus, compounds effects are only possible by inhibiting the fully-refolded MDH reporter substrate. Next enzymatic activity of the refolded MDH was initiated by addition of 20 μL MDH enzymatic assay stock (20 mM sodium mesoxalate and 2.4 mM NADH in reaction buffer, 50 mM Tris pH 7.4, 50 mM KCl, 1 mM DTT), and followed by measuring the NADH absorbance in each well at 340 nm using a Molecular Devices SpectraMax Plus384 microplate reader
A340 nm measurements were recorded at 0.5 minutes (start point) and at successive time points until the amount of NADH consumed reached ˜90% (end point, generally between 20-35 minutes). Compounds were tested in 8-point, 3-fold dilution series (62.5 μM to 29 nM during the reporter reaction) in clear, flat-bottom 384-well microtiter plates.
DMSO was used as a negative control, and previously discovered native MDH inhibitors were used as positive controls. IC50 values for the test compounds were obtained by plotting the % inhibition results in GraphPad Prism 6 and analyzing by non-linear regression using the log (inhibitor) vs. response (variable slope) equation. Results presented represent the averages of IC50 values obtained from at least quadriplicate (duplicate of duplicate) replicates.

[2] = biological target: T2, HSP60/10 (Homo sapiens, UniProt P10809); assay: HSP60/10-mediated dMDH refolding assay; assay type: biochemical
T2 construct: octa-Histidine (His8) tag, TEV-cleavable (N, cleaved yes); made in house; host or cells: HSP60 in Rosetta 2 (DE3) E. coli; HSP10 in Rosetta 2 (DE3) pLysS
Protocol: Evaluation of compounds ability to inhibit GroEL/ES and HSP60/10-mediated dMDH refolding assays.
Reagent preparation: For these assays, four primary reagent stocks were prepared: 1) GroEL/ES-dMDH or HSP60/10-dMDH binary complex stock; 2) ATP initiation stock; 3) EDTA quench stock; 4) MDH enzymatic assay stock. Denatured MDH (dMDH) was prepared by 2-fold dilution of MDH (5 mg/ml, soluble pig heart MDH from Roche, product #10127248001) with denaturant buffer (7 M guanidine-HCl, 200 mM Tris, pH 7.4, and 50 mM DTT). MDH was completely denatured by incubating at room temperature for 45 min. The binary complex solutions were prepared by slowly adding the dMDH stock to a stirring stock with GroEL (or HSP60) in folding buffer (50 mM Tris-HCl, pH 7.4, 50 mM KCl, 10 mM MglC2, and 1 mM DTT), followed by addition of GroES (or HSP10). The binary complex stocks were prepared immediately prior to dispensing into the assay plates and had final protein concentrations of 83.3 nM GroEL (Mr 800 kDa) or HSP60 (Mr 400 kDa), 100 nM GroES or HSP10 (Mr 70 kDa), and 20 nM dMDH in folding buffer. For the ATP initiation stock, ATP solid was diluted into folding buffer to a final concentration of 2.5 mM. Quench solution contained 600 mM EDTA (pH 8.0). The MDH enzymatic assay stock consisted of 20 mM sodium mesoxalate and 2.4 mM NADH in reaction buffer (50 mM Tris-HCl, pH 7.4, 50 mM KC1, and 1 mM DTT).
Assay Protocol: First, 30 μL aliquots of the GroEL/ES-dMDH or HSP60/10-dMDH binary complex stocks were dispensed into clear, 384-well polystyrene plates. Next, 0.5 μL of the compound stocks (10 mM to 4.6 μM, 3-fold dilutions series in DMSO) were added by pin-transfer (V&P Scientific). The chaperonin-mediated refolding cycles were initiated by addition of 20 IA of ATP stock (reagent concentrations during refolding cycle: 50 nM GroEL or HSP60, 60 nM GroES or HSP10, 12 nM dMDH, 1 mM ATP, and compounds of 100 μM to 46 nM, 3-fold dilution series). The refolding reactions were incubated at 37° C. The incubation time was determined from refolding time-course control experiments until they reached ˜90% completion of refolding cycle — generally ˜20-40 min for GroEL/ES, and ˜40-60 min for HSP60/10). Next, the assay was quenched by addition of 10 μL of the EDTA to final concentration of 100 mM. […] A340 nm measurements were recorded at 0.5 minutes (start point) and at successive time points until the amount of NADH consumed reached ˜90% (end point, generally between 20-35 minutes). The differences between the start and end point A340 values were used to calculate the % inhibition of the GroEL/ES or HSP60/10 machinery by the compounds. IC50 values for the test compounds were obtained by plotting the % inhibition results in GraphPad Prism 6 and analyzing by non-linear regression using the log (inhibitor) vs. response (variable slope) equation. Results presented represent the averages of IC50 values obtained from at least quadriplicate (duplicate of duplicate) replicates. For results, see Tables 1, 2, and 3.

[3] = Table 3, compounds added after refolding and EDTA quench, read-out: Biochemical Assay IC50 Native MDH Activity
[4] = Table 3, 37° C., 1 mM ATP, read-out: Biochemical Assay IC50 HSP60/10-dMDH Refolding
[5] = Table 2, compounds added after refolding and EDTA quench, read-out: Biochemical Assay IC50 Native MDH Activity
[6] = Table 2, 37° C., 1 mM ATP, read-out: Biochemical Assay IC50 HSP60/10-dMDH Refolding

T2 sequence (P10809 27-573): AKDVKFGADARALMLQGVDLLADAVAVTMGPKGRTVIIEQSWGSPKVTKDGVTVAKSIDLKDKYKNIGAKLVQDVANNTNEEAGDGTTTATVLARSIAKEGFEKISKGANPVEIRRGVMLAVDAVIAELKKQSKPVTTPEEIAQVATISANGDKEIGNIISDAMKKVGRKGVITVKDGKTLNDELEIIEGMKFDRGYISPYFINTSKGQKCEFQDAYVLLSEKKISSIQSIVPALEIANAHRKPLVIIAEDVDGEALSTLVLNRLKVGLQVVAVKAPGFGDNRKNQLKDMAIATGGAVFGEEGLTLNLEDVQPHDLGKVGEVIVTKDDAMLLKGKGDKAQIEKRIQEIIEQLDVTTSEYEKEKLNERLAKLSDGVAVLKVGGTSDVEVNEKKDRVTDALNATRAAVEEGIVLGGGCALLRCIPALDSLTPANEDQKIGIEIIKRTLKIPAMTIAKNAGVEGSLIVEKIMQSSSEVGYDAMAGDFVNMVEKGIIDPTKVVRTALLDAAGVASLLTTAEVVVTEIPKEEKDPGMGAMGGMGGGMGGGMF

Structure (SMILES) | pIC50 [1, 3] | pIC50 [2, 4] | pIC50 [1, 5] | pIC50 [2, 6] | other results
COc1ccc(NC(=O)c2cc(Cl)ccc2O)cc1 [Compound 113, 5-chloro-2-hydroxy-N-(4-methoxyphenyl)benzamide] | < 4.20 | < 4.00 |  |  | 
Cc1cc(C(C#N)c2ccc(Cl)cc2)c(Cl)cc1NC(=O)c1ccc([N+](=O)[O-])cc1 (stereo not shown) [Compound 69, N-(5-chloro-4-((4-chlorophenyl)(cyano)methyl)-2-methylphenyl)-4-nitrobenzamide] |  |  | < 4.20 | < 4.00 | 
COc1ccccc1C(=O)Nc1cc(Cl)c(C(C#N)c2ccc(Cl)cc2)cc1C (stereo not shown) [Compound 61, N-(5-chloro-4-((4-chlorophenyl)(cyano)methyl)-2-methylphenyl)-2-methoxybenzamide] |  |  | < 4.20 | < 4.00 | 
Cc1cc(C(C#N)c2ccc(Cl)cc2)c(Cl)cc1NC(=O)c1cc(Br)cc(Br)c1O (stereo not shown) [Compound 46, 3,5-dibromo-N-(5-chloro-4-((4-chlorophenyl)(cyano)methyl)-2-methylphenyl)-2-hydroxybenzamide] |  |  | 5.64 | 5.62 | 
COc1cc(Cl)ccc1C(=O)Nc1cc(Cl)c(C(C#N)c2ccc(Cl)cc2)cc1C (stereo not shown) [Compound 55, 4-chloro-N-(5-chloro-4-((4-chlorophenyl)(cyano)methyl)-2-methylphenyl)-2-methoxybenzamide] |  |  | < 4.20 | < 4.00 | 
Cc1cc(C(C#N)c2ccc(Cl)cc2)c(Cl)cc1NC(=O)c1cc(Cl)ccc1O (stereo not shown) [Compound 58, 5-chloro-N-(5-chloro-4-((4-chlorophenyl)(cyano)methyl)-2-methylphenyl)-2-hydroxybenzamide] | < 4.20 |  | < 4.20 | 4.40 | 
COc1ccc(Cl)cc1C(=O)Nc1ccc(O)cc1 [Compound 114, 5-chloro-N-(4-hydroxyphenyl)-2-methoxybenzamide] | < 4.20 | < 4.00 |  |  | 
Cc1cc(C(C#N)c2ccc(Cl)cc2)c(Cl)cc1NC(=O)c1ccccc1F (stereo not shown) [Compound 79, N-(5-chloro-4-((4-chlorophenyl)(cyano)methyl)-2-methylphenyl)-2-fluorobenzamide] |  |  | < 4.20 | < 4.00 | 
O=C(Nc1ccc(Cc2ccccc2)cc1)c1cc(Cl)ccc1O [Compound 99, N-(4-benzylphenyl)-5-chloro-2-hydroxybenzamide] | < 4.20 | < 4.00 |  |  | 
O=C(Nc1ccc(Oc2ccccc2)c(Cl)c1)c1cc(Cl)ccc1O [Compound 91, 5-chloro-N-(3-chloro-4-phenoxyphenyl)-2-hydroxybenzamide] | < 4.20 | 4.66 |  |  | 
COc1c(Cl)cc(Cl)cc1C(=O)Nc1cc(Cl)c(C(C#N)c2ccc(Cl)cc2)cc1C (stereo not shown) [Compound 51, 3,5-dichloro-N-(5-chloro-4-((4-chlorophenyl)(cyano)methyl)-2-methylphenyl)-2-methoxybenzamide] |  |  | < 4.20 | 4.07 | 
COc1c(Cl)cccc1C(=O)Nc1cc(Cl)c(C(C#N)c2ccc(Cl)cc2)cc1C (stereo not shown) [Compound 53, 3-chloro-N-(5-chloro-4-((4-chlorophenyl)(cyano)methyl)-2-methylphenyl)-2-methoxybenzamide] |  |  | < 4.20 | < 4.00 | 
O=C(Nc1ccc(Oc2ccc(Cl)cc2)c(Cl)c1)c1cc(I)cc(I)c1O [Rafoxanide, reference compound] |  |  |  |  | pIC50 [1]: 4.77; pIC50 [2]: 5.57
COc1ccc(Cl)cc1C(=O)Nc1ccc(CCc2ccccc2)cc1 [Compound 100, 5-chloro-2-methoxy-N-(4-phenethylphenyl)benzamide] | < 4.20 | < 4.00 |  |  | 
Cc1cc(C(C#N)c2ccc(Cl)cc2)c(Cl)cc1NC(=O)c1cccc(Cl)c1O (stereo not shown) [Compound 54, 3-chloro-N-(5-chloro-4-((4-chlorophenyl)(cyano)methyl)-2-methylphenyl)-2-hydroxybenzamide] |  |  | 4.24 | 5.19 | 
COc1cccc(C(=O)Nc2cc(Cl)c(C(C#N)c3ccc(Cl)cc3)cc2C)c1 (stereo not shown) [Compound 62, N-(5-chloro-4-((4-chlorophenyl)(cyano)methyl)-2-methylphenyl)-3-methoxybenzamide] |  |  | < 4.20 | < 4.00 | 
O=C(Nc1ccc(Oc2ccccc2)cc1)c1cc(Cl)ccc1O [Compound 93, 5-chloro-2-hydroxy-N-(4-phenoxyphenyl)benzamide] | < 4.20 | < 4.00 |  |  | 
COc1ccc(Cl)cc1C(=O)Nc1ccc(Cc2ccccc2)cc1 [Compound 98, N-(4-benzylphenyl)-5-chloro-2-methoxybenzamide] | < 4.20 | < 4.00 |  |  | 
COc1ccc(Cl)cc1C(=O)Nc1ccc(CC#N)cc1 [Compound 110, 5-chloro-N-(4-(cyanomethyl)phenyl)-2-methoxybenzamide] | < 4.20 | < 4.00 |  |  | 
COc1ccc(NC(=O)c2cc(Cl)ccc2OC)cc1 [Compound 112, 5-chloro-2-methoxy-N-(4-methoxyphenyl)benzamide] | < 4.20 | < 4.00 |  |  | 
Cc1cc(C(C#N)c2ccc(Cl)cc2)c(Cl)cc1NC(=O)c1cccc(O)c1 (stereo not shown) [Compound 65, N-(5-chloro-4-((4-chlorophenyl)(cyano)methyl)-2-methylphenyl)-3-hydroxybenzamide] |  |  | < 4.20 | 4.48 | 
Cc1cc(C(C#N)c2ccc(Cl)cc2)c(Cl)cc1NC(=O)c1ccccc1[N+](=O)[O-] (stereo not shown) [Compound 67, N-(5-chloro-4-((4-chlorophenyl)(cyano)methyl)-2-methylphenyl)-2-nitrobenzamide] |  |  | < 4.20 | < 4.00 | 
COC(=O)c1ccc(NC(=O)c2cc(Cl)ccc2O)cc1 [Compound 107, methyl 4-(5-chloro-2-hydroxybenzamido)benzoate] | < 4.20 | < 4.00 |  |  | 
O=C(Nc1ccc(CCc2ccccc2)cc1)c1cc(Cl)ccc1O [Compound 101] | < 4.20 | 4.09 |  |  | 
